{
  "source": "patent US4997757A",
  "about": "“Process for detecting potential carcinogens” (GeneBioMed, Inc., priority 1988, dated 1991)",
  "key": {"[1]": {"tested_on": "strain RS112 (his3 deletion alleles)", "test": "SCC (sister chromatid conversion) intrachromosomal recombination system, deletion alleles of his3", "format": "cell-based, Saccharomyces cerevisiae", "settings": "strain RS112", "from_the_text": "In the most preferred embodiment it is preferable to grow the cells in a medium which selects against the occurrence of the genome rearrangement to keep the control values as low as possible. In the embodiment described in FIG. 1 it is shown that the LEU2 gene of construct 10 is lost after the genome rearrangement which results in construct 22. Therefore cells containing construct 10, before the rearrangement are able to grow in the absence of leucine in the medium, but cells containing construct 22, after the genome rearrangement are not able to grow in the absence of leucine. After the genome rearrangement cells containing construct 22 are able to grow in the absence of histidine in the medium, but cells containing construct 10 before the genome rearrangement are not able to grow in the absence of histidine. Therefore the selection scheme which was used for Example 3 involves growth of the yeast culture in medium lacking leucine but containing histidine before and during the exposure to the potential carcinogens or other test agents. After the exposure the cells which have undergone genome rearrangement are selected on medium lacking histidine but containing leucine.\n(§1) It is preferred that, when the cells are to be grown in the presence of the agent, logarithmic phase cultures are used. In one embodiment, for each of the test strains, a cell suspension of 2×10^6 cells per milliliter-LEU medium be prepared from a logarithmic phase culture pregrown in liquid-LEU medium. The whole mix is aliquoted into portions of 5 milliliter into disposable plastic tubes in the presence of the agent to be tested, the tubes are sealed and shaken continuously for 17 hours.\nAfter the yeast cells have been exposed to both the agent to be tested and the selection medium under the conditions of the test and have been incubated for some time period of about more than one day preferably at 30 degrees Celsius or any other temperature which allows growth of the yeast cells used, the number of colonies formed by cells which have undergone genome rearrangement are counted and compared with the number of colonies of yeast cells identical in substantially every respect with the exception of not having been exposed to the suspected carcinogenic agent. The rates of genome rearrangement for both the control and experimental samples are then compared.\nPlasmids were constructed as substrates to study intrachromosomal recombination; see an earlier part of the specification and Example 1. The plasmids pRS6 (FIG. 7, construct 108) and pRS11 (FIG. 9, construct 118) both contained an internal fragment of the HIS3 gene as well as one selectable marker (LEU2). pRS11 in addition contained the 2 μm origin of replication to select for the presence of the plasmid after plasmid excision. pRS11FRT-had the FLP recombination site disrupted (see Example 1). Yeast strains RSY6 containing construct 10, RSY11 containing construct 118 and RSY11FRT- (see Example 1) were used. They contained the respective pRS plasmids integrated into the HIS3 gene of strain S35/2-10C giving rise to disruptions of the HIS3 gene construct 10 or analogs to it (FIG. 10). The two resulting his3 deletion alleles (FIG. 10) shared about 400 basepairs of homology and thus could interact with each other by homologous recombination. Reversion of his- to HIS+ occurred at a frequency of about 4×10^-4 in all three strains. All of 100 tested HIS+ revertants of strain RSY6 were leu-. Because of this observation strains used for recombination studies were always pregrown on -LEU medium to prevent growth of HIS+ revertants. Therefore the frequency of HIS+ revertants is a measure of the recombination rate.\nThe strain used in this example was RS112 which was obtained by crossing strain RSY6 with strain 428. RSY6 contains the SCC system and was deposited at November 30 under \"ATCC designation number 20871\" with the American Type Culture Collection of 12301 Parklawn Drive, Rockville, Md. 20852. […]"}, "[2]": {"tested_on": "strain RS112 (heteroalleles ade2-40 and ade2-101)", "test": "ICC (interchromosomal gene conversion) between heteroalleles ade2-40 and ade2-101", "format": "cell-based, Saccharomyces cerevisiae", "settings": "strain RS112", "description": "as §1\n(§2) The strain used in this example was RS112 which was obtained by crossing strain RSY6 with strain 428. RSY6 contains the SCC system and was deposited at November 30 under \"ATCC designation number 20871\" with the American Type Culture Collection of 12301 Parklawn Drive, Rockville, Md. 20852. Strain 428 was obtained from M. Snyder, Department of Biology, at Yale University, New Haven, Conn. and was used because it contains the mutation his3Δ-200, the construction of which has been described in an article by Struhl entitled \"Naturally occurring poly(dA-dT) sequences are upstream promoter elements of constitutive transcription in yeast, published in Proc. Natl. Acad. Sci. USA 82 on pages 8419-8423. Strains containing the his3Δ-200 mutation are readily available to those skilled in the art.\nStrain RS112 has the following genotype: [drawing 2]\nValues for the intrachromosomal recombination system between deletion alleles of his3 are designated as SCC. Also strain RS112 contained heteroallelic mutations in ade2 so that the frequency of interchromosomal gene conversion (ICC) between heteroalleles in a diploid was determined. ICC was measured as recombination between the heteroalleles ade2-40 and ade2-101 by selecting for ADE+. Values obtained are given to compare the performance of the two systems.\nThe frequencies for ICC are given in events per 10^5 survivals, and the frequencies for SCC are given in events per 10^4 survivals. It has to be noted that for sister chromatid recombination in mammalian cells the increase even with potent carcinogens is usually less than ten fold and also slight increases have been taken as positive results. For instance an increase in frequency of two fold has been taken to be significant; see a publication by Rudiger et al. entitled \"Metabolites of diethylstilbestrol induce sister chromatid exchange in human cultured fibroblasts.\" published in Nature 281:392-394)."}, "[3]": {"test": "survival of yeast exposed to agent", "format": "cell-based, Saccharomyces cerevisiae", "from_the_text": "It is preferred to conduct a preliminary experiment to determine those concentrations of the agent to be tested which should be evaluated in the main experiment. Yeast cells are exposed to a wide range of concentrations of the agent to be tested to determine its cytotoxicity.\nas §1, §2"}, "Salmonella typhimurium": {"tested_on": "Salmonella typhimurium", "settings": "cited from earlier work"}, "mammalian cells [4]": {"tested_on": "mammalian cells", "settings": "cited from earlier work"}, "mammalian cells [5]": {"tested_on": "mammalian cells", "settings": "cited from earlier work", "remark": "listed apart in the source"}, "rat liver": {"tested_on": "rat liver", "settings": "in vivo; cited from earlier work"}, "rats": {"tested_on": "rats", "settings": "cited from earlier work"}, "mice": {"tested_on": "mice", "settings": "cited from earlier work"}, "[6]": {"settings": "in vivo; cited from earlier work"}, "strain RS112 [7]": {"tested_on": "strain RS112", "test": "plating efficiency after MBC treatment", "format": "cell-based, Saccharomyces cerevisiae", "settings": "100 μg/ml, 5 to 7 hours at 30° C.", "description": "(§3) The applicant has reproduced the method published in the aforementioned paper by Fabre et al. Mol. Gen. Genet. 195:139143 (1984) to obtain mostly G1 (stationary) and G2 arrested cells by using Methyl-Benzimidazole-Carbamate (MBC) to arrest the cells in G2 : Strain used for the experiment was RS112, the genotype of which is given below: [drawing 1] Media were the same as described at another part of the specification. Stationary cells were obtained by incubation of cells in liquid YPD at 30° C. for 48 hours. Stationary cells were more than 85% in G1. To obtain cells arrested in G2 the cells were incubated in YPD containing the fungicide methyl benzimidazol-2-yl carbamate (MBC) (stock solution 10 mg/ml) at a concentration of 100 μg/ml at a cell density of 10^7 cells/ml for 5 to 7 hours at 30° C. […] Log phase cells were obtained by incubation of the cells in YEPD for the same time period without MBC. Log phase cultures contained cells in all stages. The cells were irradiated with UV light at a dose of 0-40 J/m2 and cells were held at G1, log or G2 for another two hours to allow repair of the damage in the respective stage. The cells were than collected by centrifugation and washed twice, plated for survivals onto SC medium, for determination of interchromosomal conversion events onto SC-Ade and for determination of SCC onto SC-His."}, "strain RS112 [8]": {"tested_on": "strain RS112", "test": "G2 arrest of yeast cells by MBC", "format": "cell-based, Saccharomyces cerevisiae", "settings": "100 μg/ml, 5 to 7 hours at 30° C.", "description": "as §3"}},
  "data": [
    {"smiles": "C=CCc1ccc2c(c1)OCO2", "note": "[Safrole]", "values": [
      {"measurement": "SCC/10^4 cells", "setting": "[1]; 0.05 %", "result": "0.94 /10^4 cells"},
      {"measurement": "SCC/10^4 cells", "setting": "[1]; 0.1 %", "result": "1.22 /10^4 cells"},
      {"measurement": "SCC/10^4 cells", "setting": "[1]; 0.2 %", "result": "2.4 /10^4 cells"},
      {"measurement": "SCC/10^4 cells", "setting": "[1]; 0.4 %", "result": "14.1 /10^4 cells"},
      {"measurement": "ICC/10^5 cells", "setting": "[2]; 0.05 %", "result": "1.07 /10^5 cells"},
      {"measurement": "ICC/10^5 cells", "setting": "[2]; 0.1 %", "result": "0.59 /10^5 cells"},
      {"measurement": "ICC/10^5 cells", "setting": "[2]; 0.2 %", "result": "0.82 /10^5 cells"},
      {"measurement": "ICC/10^5 cells", "setting": "[2]; 0.4 %", "result": "1.36 /10^5 cells"},
      {"measurement": "viability at 17 h", "setting": "[3]; yeast strain rs112, 0.05 %", "result": 112, "unit": "%"},
      {"measurement": "viability at 17 h", "setting": "[3]; yeast strain rs112, 0.1 %", "result": 95, "unit": "%"},
      {"measurement": "viability at 17 h", "setting": "[3]; yeast strain rs112, 0.2 %", "result": 76, "unit": "%"},
      {"measurement": "viability at 17 h", "setting": "[3]; yeast strain rs112, 0.4 %", "result": 4.6, "unit": "%"},
      {"measurement": "Ames Assay result", "setting": "Salmonella typhimurium", "result": "negative"},
      {"measurement": "SCE assay result", "setting": "mammalian cells [4]", "result": "negative"},
      {"measurement": "chromosomal aberration assay result", "setting": "mammalian cells [5]", "result": "negative"},
      {"measurement": "rat liver foci assay result", "setting": "rat liver", "result": "negative"},
      {"measurement": "carcinogenicity", "setting": "rats", "result": "produces liver cancer in mice and rats"},
      {"measurement": "carcinogenicity", "setting": "mice", "result": "produces liver cancer in mice and rats"},
      {"measurement": "carcinogenicity", "setting": "[6]", "result": "known carcinogens"}
    ]},
    {"smiles": "COC(=O)Nc1nc2ccccc2[nH]1", "note": "[MBC, methyl benzimidazol-2-yl carbamate]", "values": [
      {"measurement": "plating efficiency", "setting": "strain RS112 [7]", "result": "never decreased"},
      {"measurement": "cells showing characteristic G2 arrest", "setting": "strain RS112 [8]", "result": "more than 90%"}
    ]}
  ]
}
